We go through 1 molecule from article PMC11003496 (Journal of Enzyme Inhibition and Medicinal Chemistry, 2023).

The test system of assay [1] is HCT116 colorectal cancer. Put plainly: MTT cell viability assay, HCT-116. The assay is classed as cell-based. Conditions: read-out: HCT-116 IC50, 48 h, mean of six values. (Tetrazolium dyes change colour on reduction, which living cells bring about.)
The test system of assay [2] is A549 non-small cell lung cancer. Nature of the assay: MTT cell viability assay, A549. The assay is classed as cell-based. The following applies: read-out: A549 IC50; MTT, 48 h, mean of six values.

Turning to `O=c1[nH]cc(F)c(=O)[nH]1` [Compound 5-F.U., reference compound], the IC50 in assay [1] was found to be 4.8 µM; in assay [2], 6 µM.

A word on the IC50: it is the midpoint of a concentration-inhibition curve.
